Paper PMC11953309 (Nature Communications, 2025)

System: IBD mouse fecal-derived ex vivo microbial community
Experiment: Ex vivo screening on IBD mouse fecal-derived microbial community
Type: cell-based, IL-10-deficient C57BL/6N mouse

Question: Which “Number of differentially abundant species” value (10 μg/mL, 48 h anaerobic, mGAM, MaAsLin2 vs blank, FDR-adjusted p < 0.05, n = 3) does the source give for `CN[C@H](CC(C)C)C(=O)N[C@H]1C(=O)N[C@@H](CC(N)=O)C(=O)N[C@H]2C(=O)N[C@H]3C(=O)N[C@H](C(=O)N[C@H](C(=O)O)c4cc(O)cc(O)c4-c4cc3ccc4O)[C@H](O)c3ccc(c(Cl)c3)Oc3cc2cc(c3O[C@@H]2O[C@H](CO)[C@@H](O)[C@H](O)[C@H]2O[C@H]2C[C@](C)(N)[C@H](O)[C@H](C)O2)Oc2ccc(cc2Cl)[C@H]1O` [vancomycin] here?
Answer: Its value is 73.

Question: What about the “beta diversity (PCoA, Bray-Curtis) clustering vs blank” value (AIPs 10 μg/mL, vancomycin 1 μg/mL and 10 μg/mL, 48 h) of the same molecule?
Answer: The value was “notable differences”.
